This note sets out measurements from US20240262819A1, “NOVEL COMPOUNDS HAVING INHIBITORY ACTIVITY AGAINST GLUCOSYLCERAMIDE SYNTHASE OR PHARMACEUTICALLY ACCEPTABLE SALT THEREOF, PROCESSES FOR PREPARING THE SAME, AND PHARMACEUTICAL COMPOSITIONS COMPRISING THE SAME” (YUHAN CORPORATION, priority 2021, published 2024).

Data set [1] can be described thus: Evaluation of blood-brain barrier (BBB) permeability through oral administration. As to conditions: mice, oral, dose 30 mg/kg, 4 hr; for Kp at 4 h / concentration at 4 h: mouse, in vivo; for Kp at 4 h: read-out: Mean brain-plasma drug ratio at 4 hr. Format: in vivo, mice. Summed up:
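Mice dosed orally at 10 or 30 mg/10 ml/kg, suspended in 0.5% methyl cellulose with 0.2% Tween 80. Plasma and forebrain homogenate taken 4 hours post-dose, drug measured by LC-MS/MS; brain/plasma ratio calculated from tissue concentrations.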

Data set [2] concerns the target glucosylceramide synthase (GCS) (Homo sapiens (Human), UniProt Q16739). Kind of data set: Evaluation of inhibitory activities against GCS (A549 cell lysate, NBD C6-ceramide, HPLC). Format: biochemical. Put shortly: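 GCS activity in A549 cell lysate (50 mM HEPES, pH 7.3) with NBD C6-ceramide, reacted 90 min at 37 °C. Lipids were chloroform/methanol-extracted and separated by normal-phase HPLC with fluorescence detection (ex 470/em 530 nm). GlcCer fraction of peak area was normalized between DMSO and ibiglustat, and IC50 obtained by curve fitting.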

Data set [3] deals with GM1 production in Jurkat cells. Kind of data set: cells. Format: cell-based.
Setting [4] is: read-out: Mean drug concentrations in brain tissue at 4 hr.
The mark [5] stands for this setting: read-out: Mean drug concentrations in plasma at 4 hr.
The mark [6] stands for this setting: % GCS activity, A549 cell lysate, 37° C. for 90 minutes, read-out: IC50.

The structures appear in SMILES notation. Where two headings read alike, the source gives them in different places.

glucosylceramide synthase (GCS), sequence (Q16739 whole entry): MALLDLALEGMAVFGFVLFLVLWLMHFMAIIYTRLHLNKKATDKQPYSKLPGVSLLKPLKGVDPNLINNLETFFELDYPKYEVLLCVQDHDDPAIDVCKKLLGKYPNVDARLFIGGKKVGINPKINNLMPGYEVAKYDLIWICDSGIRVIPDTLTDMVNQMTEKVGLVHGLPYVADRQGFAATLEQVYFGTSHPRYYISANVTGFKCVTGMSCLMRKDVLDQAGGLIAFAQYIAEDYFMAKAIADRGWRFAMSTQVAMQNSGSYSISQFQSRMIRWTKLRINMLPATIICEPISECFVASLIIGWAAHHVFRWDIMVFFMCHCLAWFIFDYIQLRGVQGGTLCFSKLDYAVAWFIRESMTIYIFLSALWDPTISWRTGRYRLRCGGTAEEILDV

Usually IC50 stands for the concentration needed to halve the response being measured. Take `Cc1cc(OC(C)C)ccc1-c1cc2c(cc1F)[C@H](NC(=O)O[C@@H]1CN3CCC1CC3)C(C)(C)C2` [Example 96, (S)-quinuclidin-3-yl((R)-6-fluoro-5-(4-isopropoxy-2-methylphenyl)-2,2-dimethyl-2,3-dihydro-1H-inden-1-yl)carbamate]: the Kp at 4 h in data set [1] was found to be 6.24. For the same molecule, the values for the concentration at 4 h in data set [1] (setting [4]) and in data set [1] (setting [5]) were 5360 ng/g and 864 ng/mL, respectively. For the same molecule, the IC50 stood at 0.08 nM in data set [2] and 0.76 nM in data set [3] (Homo sapiens, Jurkat, 72 h).
On the same counts, the results for `CCOc1ccc(-c2cc3c(cc2F)[C@H](NC(=O)O[C@@H]2CN4CCC2CC4)C(C)(C)C3)c(Cl)c1` [Example 104, (S)-quinuclidin-3-yl((R)-5-(2-chloro-4-ethoxyphenyl)-6-fluoro-2,2-dimethyl-2,3-dihydro-1H-inden-1-yl)carbamate] are 3.76, 5180 ng/g, 1380 ng/mL, 0.1 nM and 1.4 nM.
On the same counts, the results for `CCCOc1c(C)cc(-c2ccc3c(c2)CCC(C)(C)[C@H]3NC(=O)O[C@@H]2CN3CCC2CC3)cc1C` [Example 148, (S)-quinuclidin-3-yl((R)-6-(3,5-dimethyl-4-propoxyphenyl)-2,2-dimethyl-1,2,3,4-tetrahydronaphthalen-1-yl)carbamate] are 1.82, 1680 ng/g, 951 ng/mL, 1.6 nM and 8.86 nM.
For `CC(C)Oc1ccc(-c2ccc3c(c2)CCC(C)(C)[C@H]3NC(=O)O[C@@H]2CN3CCC2CC3)cc1Cl` [Example 150, (S)-quinuclidin-3-yl((R)-6-(3-chloro-4-isopropoxyphenyl)-2,2-dimethyl-1,2,3,4-tetrahydronaphthalen-1-yl) carbamate], in data set [1], the “Mean brain-plasma drug ratio at 4 hr” value is given as 1.471, the “Mean drug concentrations in brain tissue at 4 hr” value turned out to be 1520.5 ng/g and the “Mean drug concentrations in plasma at 4 hr” value is 1065 ng/mL. In data set [2] (setting [6]), the IC50 is 1.26 nM. In addition, the IC50 in data set [3] (read-out: IC50) was 3.27 nM.
With `COc1ccc(-c2ccc3c(c2)CCC(C)(C)[C@H]3NC(=O)O[C@@H]2CN3CCC2CC3)c(F)c1` [Example 151, (S)-quinuclidin-3-yl((R)-6-(2-fluoro-4-methoxyphenyl)-2,2-dimethyl-1,2,3,4-tetrahydronaphthalen-1-yl) carbamate], in data set [1], the “Mean brain-plasma drug ratio at 4 hr” value worked out at 2.04, the “Mean drug concentrations in brain tissue at 4 hr” value is 2441.3 ng/g and the “Mean drug concentrations in plasma at 4 hr” value is listed as 1196.4 ng/mL. Moreover, in data set [2] (setting [6]), the IC50 stood at 0.49 nM. For the same molecule, the IC50 in data set [3] (read-out: IC50) worked out at 5.2 nM.
With `CCc1cccc(-c2ccc3c(c2)CCC(C)(C)[C@H]3NC(=O)O[C@@H]2CN3CCC2CC3)c1` [Example 158, (S)-quinuclidin-3-yl((R)-6-(3-ethylphenyl)-2,2-dimethyl-1,2,3,4-tetrahydronaphthalen-1-yl)carbamate], the Kp at 4 h in data set [1] worked out at 3.67. Also, the concentration at 4 h was determined as 3720 ng/g in data set [1] (setting [4]) and 1020 ng/mL in data set [1] (setting [5]). Further, the IC50 worked out at 0.45 nM in data set [2] and 1.1 nM in data set [3] (Homo sapiens, Jurkat, 72 h).
On the same counts, the results for `CC(C)Oc1ccc(-c2ccc3c(c2)CCC(C)(C)[C@H]3NC(=O)O[C@@H]2CN3CCC2CC3)cc1F` [Example 161, (S)-quinuclidin-3-yl((R)-6-(3-fluoro-4-isopropoxyphenyl)-2,2-dimethyl-1,2,3,4-tetrahydronaphthalen-1-yl)carbamate] are 3.97, 4840 ng/g, 1240 ng/mL, 7.41 nM and 4.5 nM.
Turning to `CC(C)c1cccc(-c2ccc3c(c2)CCC(C)(C)[C@H]3NC(=O)O[C@@H]2CN3CCC2CC3)c1` [Example 162, (S)-quinuclidin-3-yl((R)-6-(3-isopropylphenyl)-2,2-dimethyl-1,2,3,4-tetrahydronaphthalen-1-yl)carbamate], the Kp at 4 h in data set [1] was found to be 3.71. For the same molecule, the concentration at 4 h was found to be 3570 ng/g in data set [1] (setting [4]) and 967 ng/mL in data set [1] (setting [5]). For the same molecule, the IC50 in data set [2] was determined as 7.55 nM; in data set [3] (Homo sapiens, Jurkat, 72 h) it was 1.4 nM.
For `CC(C)Oc1cccc(-c2ccc3c(c2)CCC(C)(C)[C@H]3NC(=O)O[C@@H]2CN3CCC2CC3)c1` [Example 165, (S)-quinuclidin-3-yl((R)-6-(3-isopropoxyphenyl)-2,2-dimethyl-1,2,3,4-tetrahydronaphthalen-1-yl)carbamate], in that order: 2.83, 2400 ng/g, 852 ng/mL, 0.55 nM and 2.51 nM.
For `CC(C)Oc1ccc(-c2ccc3c(c2)CCC(C)(C)[C@H]3NC(=O)O[C@@H]2CN3CCC2CC3)c(Cl)c1` [Example 168, (S)-quinuclidin-3-yl((R)-6-(2-chloro-4-isopropoxyphenyl)-2,2-dimethyl-1,2,3,4-tetrahydronaphthalen-1-yl)carbamate], in that order: 1.18, 3370 ng/g, 2890 ng/mL, 0.188 nM and 0.23 nM.
In the case of `CCCc1ccc(-c2cc3c(cc2F)[C@H](NC(=O)O[C@@H]2CN4CCC2CC4)C(C)(C)CC3)cc1` [Example 171, (S)-quinuclidin-3-yl((R)-7-fluoro-2,2-dimethyl-6-(4-propylphenyl)-1,2,3,4-tetrahydronaphthalen-1-yl)carbamate], the Kp at 4 h in data set [1] turned out to be 3.88. Besides, the concentration at 4 h in data set [1] (setting [4]) is 2900 ng/g; in data set [1] (setting [5]) it was 748 ng/mL. Also, the IC50 in data set [2] turned out to be 0.19 nM; in data set [3] (Homo sapiens, Jurkat, 72 h), 1.4 nM.
For `CCOc1ccc(-c2cc3c(cc2F)[C@H](NC(=O)O[C@@H]2CN4CCC2CC4)C(C)(C)CC3)cc1` [Example 176, (S)-quinuclidin-3-yl((R)-6-(4-ethoxyphenyl)-7-fluoro-2,2-dimethyl-1,2,3,4-tetrahydronaphthalen-1-yl)carbamate], in that order: 3.58, 4860 ng/g, 1360 ng/mL, 0.24 nM and 2.1 nM.
As to `COc1c(C)cc(-c2cc3c(cc2F)[C@H](NC(=O)O[C@@H]2CN4CCC2CC4)C(C)(C)CC3)cc1C` [Example 180, (S)-quinuclidin-3-yl((R)-7-fluoro-6-(4-methoxy-3,5-dimethylphenyl)-2,2-dimethyl-1,2,3,4-tetrahydronaphthalen-1-yl)carbamate], the Kp at 4 h in data set [1] worked out at 1.34. For the same molecule, the concentration at 4 h came out at 1510 ng/g in data set [1] (setting [4]) and 1140 ng/mL in data set [1] (setting [5]). For the same molecule, the IC50 in data set [2] amounted to 1.32 nM; in data set [3] (Homo sapiens, Jurkat, 72 h), 8 nM.
On the same counts, the results for `CCCOc1c(C)cc(-c2cc3c(cc2F)[C@H](NC(=O)O[C@@H]2CN4CCC2CC4)C(C)(C)CC3)cc1C` [Example 181, (S)-quinuclidin-3-yl((R)-6-(3,5-dimethyl-4-propoxyphenyl)-7-fluoro-2,2-dimethyl-1,2,3,4-tetrahydronaphthalen-1-yl)carbamate] are 1.65, 848 ng/g, 510 ng/mL, 1.85 nM and 7.1 nM.
For `CC(C)Oc1ccc(-c2cc3c(cc2F)[C@H](NC(=O)O[C@@H]2CN4CCC2CC4)C(C)(C)CC3)cc1Cl` [Example 193, (S)-quinuclidin-3-yl((R)-6-(3-chloro-4-isopropoxyphenyl)-7-fluoro-2,2-dimethyl-1,2,3,4-tetrahydronaphthalen-1-yl)carbamate], in that order: 3.46, 3020 ng/g, 871 ng/mL, 0.78 nM and 6.75 nM.
On the same counts, the results for `COc1ccc(-c2cc3c(cc2F)[C@H](NC(=O)O[C@@H]2CN4CCC2CC4)C(C)(C)CC3)c(F)c1` [Example 194, (S)-quinuclidin-3-yl((R)-7-fluoro-6-(2-fluoro-4-methoxyphenyl)-2,2-dimethyl-1,2,3,4-tetrahydronaphthalen-1-yl)carbamate] are 1.67, 2100 ng/g, 1260 ng/mL, 0.41 nM and 4.6 nM.
Consider `CC(C)Oc1ccc(-c2cc3c(cc2F)[C@H](NC(=O)O[C@@H]2CN4CCC2CC4)C(C)(C)CC3)cc1` [Example 197, (S)-quinuclidin-3-yl((R)-7-fluoro-6-(4-isopropoxyphenyl)-2,2-dimethyl-1,2,3,4-tetrahydronaphthalen-1-yl)carbamate], for which, in data set [1], the Kp at 4 h came out at 3.56. The values for the concentration at 4 h in data set [1] (setting [4]) and in data set [1] (setting [5]) were 6690 ng/g and 1880 ng/mL, respectively. In addition, the IC50 in data set [2] turned out to be 0.2 nM; in data set [3] (Homo sapiens, Jurkat, 72 h) it was 0.94 nM.
For `CC(C)Oc1ccc(-c2cc3c(cc2F)[C@H](NC(=O)O[C@@H]2CN4CCC2CC4)C(C)(C)CC3)cc1F` [Example 198, (S)-quinuclidin-3-yl((R)-7-fluoro-6-(3-fluoro-4-isopropoxyphenyl)-2,2-dimethyl-1,2,3,4-tetrahydronaphthalen-1-yl)carbamate], in that order: 3.46, 5120 ng/g, 1480 ng/mL, 0.34 nM and 3.2 nM.
